The source of these data is patent EP0979827A1, “Peptides having tachykinin antagonist activity, a process for preparation thereof and pharmaceutical compositions comprising the same” (Boehringer Ingelheim Pharma KG, priority 1992, dated 1994).

For this experiment, the target named is T1, NK1-Rezeptor (Substanz P-Rezeptor) (Homo sapiens, UniProt P25103).
T1 construct: expressed in transfected cells; host or cells: human lymphoblastoma cells IM-9
Description: Receptor affinity for the NK1 receptor: displacement of 125I-labelled substance P on IM-9 cells. The class given is binding. The conditions noted are these: humane Lymphoblastoma-Zellen (IM-9) mit klonierten NK1-Rezeptoren; Verdrängung von 125J-markierter Substanz P; read-out: IC50-Werte. As to the method:
Die Rezeptoraffinität zum NK1-Rezeptor (Substanz P-Rezeptor) wurde an humanen Lymphoblastoma-Zellen (IM-9) mit klonierten NK1-Rezeptoren bestimmt, wobei die Verdrängung von ^125J-markierter Substanz P gemessen wird. Die so erhaltenen IC50-Werte betragen: Verb. A : 60 nM Verb. B : 21 nM Verb. C : 90 nM Verb. D : 45 nM [drawing 26]
Background: In a radioligand displacement assay an active substance lowers the binding of a labelled ligand.

Molecules are shown by their SMILES.

T1 sequence (P25103 whole entry): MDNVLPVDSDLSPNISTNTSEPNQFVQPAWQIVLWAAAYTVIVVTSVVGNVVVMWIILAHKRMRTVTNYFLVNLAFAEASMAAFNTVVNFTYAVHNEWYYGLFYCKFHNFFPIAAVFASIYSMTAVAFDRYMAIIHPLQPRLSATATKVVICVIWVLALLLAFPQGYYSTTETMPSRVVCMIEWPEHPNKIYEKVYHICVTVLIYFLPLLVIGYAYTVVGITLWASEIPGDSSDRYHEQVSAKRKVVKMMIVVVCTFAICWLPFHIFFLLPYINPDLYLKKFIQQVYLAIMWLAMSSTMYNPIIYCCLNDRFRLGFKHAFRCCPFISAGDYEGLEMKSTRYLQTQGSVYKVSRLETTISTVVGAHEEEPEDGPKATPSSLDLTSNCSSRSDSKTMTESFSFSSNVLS

What is called IC50 is the concentration needed to halve the response being measured. Turning to `CN(Cc1ccccc1)C(=O)[C@H](Cn1cccc1)NC(=O)[C@@H]1C[C@@H](O)CN1C(=O)c1c[nH]c2ccccc12` [Verb. A], the IC50 was 60 nM.

As to `CN(Cc1ccccc1)C(=O)[C@H](COCc1ccccc1)NC(=O)[C@@H]1C[C@@H](O)CN1C(=O)c1c[nH]c2ccccc12` [Verb. B], the concentration for half-maximal inhibition (IC50) amounted to 21 nM.

`CN(Cc1ccccc1)C(=O)[C@H](CC1CCCCC1)NC(=O)[C@@H]1C[C@@H](O)CN1C(=O)c1c[nH]c2ccccc12` [Verb. D]: the half-inhibitory concentration (IC50) worked out at 45 nM.
